According to patent US8158376B2, “Bisubstrate fluorescent probe binding to protein kinases” (University of Tartu, priority 2006, dated 2012):
Values joined by “and” are separate entries in the source; they are usually repeats but may differ in a detail not shown here. Identical values can stand only once. Starred links: 1 amine or outer side, 2 acyl side, 3 side chain; linkers in the order of their positions; H or OH if unused. Non-standard residues stand in square brackets, D forms with d. Residues, ends and D or L forms follow the SMILES beside them. *: point of attachment. Adenosine(5'-uronoyl) = Nc1ncnc2c1ncn2[C@@H]1O[C@H](C(=O)*)[C@@H](O)[C@H]1O; X1 = CN(C)c1ccc2c(-c3ccc(C(=O)*)cc3C(=O)[O-])c3ccc(=[N+](C)C)cc-3oc2c1; Isoquinoline5sulfonyl = O=S(=O)(c1cccc2cnccc12)*; X2 = O=C(CCCCCNCCN[*:1])[*:2]; X3 = CN(CCCCCC(=O)[*:2])[*:1]; 4Amb = NCc1ccc(C(=O)O)cc1; Ahx = NCCCCCC(=O)O; βAla = NCCC(=O)O

Legend:
MSK1 = MSK1 (Homo sapiens, UniProt O75582); experiment: Kinase selectivity panel, residual activity; assay type: biochemical; details: 1 μM compound, 20 μM ATP, 30° C.
Chain of MSK1 (O75582 whole entry): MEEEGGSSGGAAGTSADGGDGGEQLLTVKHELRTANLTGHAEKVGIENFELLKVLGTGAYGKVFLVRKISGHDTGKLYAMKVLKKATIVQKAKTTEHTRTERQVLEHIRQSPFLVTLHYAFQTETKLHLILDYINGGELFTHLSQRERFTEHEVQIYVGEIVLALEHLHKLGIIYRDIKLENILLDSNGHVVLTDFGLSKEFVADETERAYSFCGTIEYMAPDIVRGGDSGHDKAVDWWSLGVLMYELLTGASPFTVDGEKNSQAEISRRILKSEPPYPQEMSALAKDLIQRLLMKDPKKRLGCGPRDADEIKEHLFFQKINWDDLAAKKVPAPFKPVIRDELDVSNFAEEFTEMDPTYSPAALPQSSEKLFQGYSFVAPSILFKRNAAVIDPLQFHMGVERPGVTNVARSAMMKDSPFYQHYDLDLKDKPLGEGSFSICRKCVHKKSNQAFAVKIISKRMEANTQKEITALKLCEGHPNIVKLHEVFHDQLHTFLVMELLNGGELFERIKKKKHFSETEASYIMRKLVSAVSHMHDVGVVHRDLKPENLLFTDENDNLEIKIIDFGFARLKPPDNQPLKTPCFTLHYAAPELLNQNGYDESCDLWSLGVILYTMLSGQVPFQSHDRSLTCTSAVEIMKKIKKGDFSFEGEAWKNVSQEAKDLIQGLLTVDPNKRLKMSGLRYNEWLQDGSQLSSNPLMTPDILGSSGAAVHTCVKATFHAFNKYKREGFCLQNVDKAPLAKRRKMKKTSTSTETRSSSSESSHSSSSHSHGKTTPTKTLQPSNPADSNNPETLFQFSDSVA
Method: The assay of protein kinases was performed at 30° C. as described previously [Davies et al., Biochem. J. 351 (2000) 95; Murray et al., Biochem. J. 384 (2004) 477].

PKBb = PKBb (Homo sapiens, UniProt P31751); experiment: Kinase selectivity panel, residual activity; assay type: biochemical; details: 1 μM compound, 50 μM ATP, 30° C.
Chain of PKBb (P31751 whole entry): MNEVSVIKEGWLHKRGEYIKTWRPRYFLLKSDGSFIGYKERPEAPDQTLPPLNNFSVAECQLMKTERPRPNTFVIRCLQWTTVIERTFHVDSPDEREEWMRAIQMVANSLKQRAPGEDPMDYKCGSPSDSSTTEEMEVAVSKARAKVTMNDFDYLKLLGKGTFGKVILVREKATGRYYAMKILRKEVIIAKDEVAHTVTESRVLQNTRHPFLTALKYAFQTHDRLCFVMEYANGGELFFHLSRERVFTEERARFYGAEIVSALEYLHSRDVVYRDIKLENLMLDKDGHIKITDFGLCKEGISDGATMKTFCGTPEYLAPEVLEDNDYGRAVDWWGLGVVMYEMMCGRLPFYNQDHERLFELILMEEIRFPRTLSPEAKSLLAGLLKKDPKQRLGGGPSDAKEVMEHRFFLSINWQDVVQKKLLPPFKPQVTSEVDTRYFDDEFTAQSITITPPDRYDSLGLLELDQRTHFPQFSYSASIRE
Method: (§1) The assay of protein kinases was performed at 30° C. as described previously [Davies et al., Biochem. J. 351 (2000) 95; Murray et al., Biochem. J. 384 (2004) 477]. The results of the testing are expressed as the % of residual activity of the kinase in the presence of the inhibitor at 1 micromolar concentration.

PKBΔph = PKBΔph (Homo sapiens, UniProt P31749); experiment: Kinase selectivity panel, residual activity; assay type: biochemical; details: 1 μM compound, 5 μM ATP, 30° C.
Chain of PKBΔph (P31749 whole entry, stated change not applied): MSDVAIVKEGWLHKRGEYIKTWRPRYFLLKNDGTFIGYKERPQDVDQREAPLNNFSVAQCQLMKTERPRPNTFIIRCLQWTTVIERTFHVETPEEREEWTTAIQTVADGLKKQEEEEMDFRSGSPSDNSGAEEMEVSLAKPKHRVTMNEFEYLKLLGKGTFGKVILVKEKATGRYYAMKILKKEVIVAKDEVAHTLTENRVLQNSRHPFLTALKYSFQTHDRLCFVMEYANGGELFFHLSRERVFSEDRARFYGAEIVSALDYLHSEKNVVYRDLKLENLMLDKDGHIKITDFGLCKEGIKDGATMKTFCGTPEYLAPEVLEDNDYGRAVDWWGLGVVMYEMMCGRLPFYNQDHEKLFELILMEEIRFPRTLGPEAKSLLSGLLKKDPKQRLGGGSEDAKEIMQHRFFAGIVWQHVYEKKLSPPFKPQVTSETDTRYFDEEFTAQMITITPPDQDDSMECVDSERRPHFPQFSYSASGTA
Method: as §1

PRK2 = PRK2 (Homo sapiens, UniProt Q16513); experiment: Kinase selectivity panel, residual activity; assay type: biochemical
Chain of PRK2 (Q16513 whole entry): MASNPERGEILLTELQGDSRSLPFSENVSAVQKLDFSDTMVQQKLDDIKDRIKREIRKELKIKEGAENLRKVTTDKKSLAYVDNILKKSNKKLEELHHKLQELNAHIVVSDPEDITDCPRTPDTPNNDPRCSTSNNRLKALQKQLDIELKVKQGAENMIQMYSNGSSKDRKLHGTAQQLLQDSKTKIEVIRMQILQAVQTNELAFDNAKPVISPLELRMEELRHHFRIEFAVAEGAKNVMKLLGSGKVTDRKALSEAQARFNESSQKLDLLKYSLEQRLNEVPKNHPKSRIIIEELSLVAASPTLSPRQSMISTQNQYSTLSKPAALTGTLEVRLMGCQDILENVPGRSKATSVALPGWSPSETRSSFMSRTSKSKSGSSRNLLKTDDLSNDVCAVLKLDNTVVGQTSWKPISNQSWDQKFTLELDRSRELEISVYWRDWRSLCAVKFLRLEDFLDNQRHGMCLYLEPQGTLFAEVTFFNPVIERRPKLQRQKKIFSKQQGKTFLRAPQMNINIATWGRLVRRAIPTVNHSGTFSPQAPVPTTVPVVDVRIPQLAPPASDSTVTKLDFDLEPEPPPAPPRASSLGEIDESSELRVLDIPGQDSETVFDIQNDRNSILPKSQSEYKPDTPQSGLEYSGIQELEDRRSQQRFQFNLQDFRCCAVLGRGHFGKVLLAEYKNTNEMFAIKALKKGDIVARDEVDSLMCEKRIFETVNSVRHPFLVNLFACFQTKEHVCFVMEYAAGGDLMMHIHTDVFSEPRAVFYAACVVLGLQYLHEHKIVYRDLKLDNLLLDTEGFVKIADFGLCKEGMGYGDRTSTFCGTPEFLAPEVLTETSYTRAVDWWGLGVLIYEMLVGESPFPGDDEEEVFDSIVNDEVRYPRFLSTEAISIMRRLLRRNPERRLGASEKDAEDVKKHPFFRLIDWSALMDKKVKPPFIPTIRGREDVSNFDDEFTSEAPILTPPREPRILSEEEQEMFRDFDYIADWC
Method: as §1

[1] = target: Rho-associated kinase ROCK II (Homo sapiens, UniProt O75116); experiment: Titration of ARC-TAMRA with ROCK II, PHERAstar; assay type: binding; details: 2 nM and 20 nM ARC-TAMRA, read-out: Kd of ARC-TAMRA-ROCK II complex
Chain of Rho-associated kinase ROCK II (O75116 whole entry): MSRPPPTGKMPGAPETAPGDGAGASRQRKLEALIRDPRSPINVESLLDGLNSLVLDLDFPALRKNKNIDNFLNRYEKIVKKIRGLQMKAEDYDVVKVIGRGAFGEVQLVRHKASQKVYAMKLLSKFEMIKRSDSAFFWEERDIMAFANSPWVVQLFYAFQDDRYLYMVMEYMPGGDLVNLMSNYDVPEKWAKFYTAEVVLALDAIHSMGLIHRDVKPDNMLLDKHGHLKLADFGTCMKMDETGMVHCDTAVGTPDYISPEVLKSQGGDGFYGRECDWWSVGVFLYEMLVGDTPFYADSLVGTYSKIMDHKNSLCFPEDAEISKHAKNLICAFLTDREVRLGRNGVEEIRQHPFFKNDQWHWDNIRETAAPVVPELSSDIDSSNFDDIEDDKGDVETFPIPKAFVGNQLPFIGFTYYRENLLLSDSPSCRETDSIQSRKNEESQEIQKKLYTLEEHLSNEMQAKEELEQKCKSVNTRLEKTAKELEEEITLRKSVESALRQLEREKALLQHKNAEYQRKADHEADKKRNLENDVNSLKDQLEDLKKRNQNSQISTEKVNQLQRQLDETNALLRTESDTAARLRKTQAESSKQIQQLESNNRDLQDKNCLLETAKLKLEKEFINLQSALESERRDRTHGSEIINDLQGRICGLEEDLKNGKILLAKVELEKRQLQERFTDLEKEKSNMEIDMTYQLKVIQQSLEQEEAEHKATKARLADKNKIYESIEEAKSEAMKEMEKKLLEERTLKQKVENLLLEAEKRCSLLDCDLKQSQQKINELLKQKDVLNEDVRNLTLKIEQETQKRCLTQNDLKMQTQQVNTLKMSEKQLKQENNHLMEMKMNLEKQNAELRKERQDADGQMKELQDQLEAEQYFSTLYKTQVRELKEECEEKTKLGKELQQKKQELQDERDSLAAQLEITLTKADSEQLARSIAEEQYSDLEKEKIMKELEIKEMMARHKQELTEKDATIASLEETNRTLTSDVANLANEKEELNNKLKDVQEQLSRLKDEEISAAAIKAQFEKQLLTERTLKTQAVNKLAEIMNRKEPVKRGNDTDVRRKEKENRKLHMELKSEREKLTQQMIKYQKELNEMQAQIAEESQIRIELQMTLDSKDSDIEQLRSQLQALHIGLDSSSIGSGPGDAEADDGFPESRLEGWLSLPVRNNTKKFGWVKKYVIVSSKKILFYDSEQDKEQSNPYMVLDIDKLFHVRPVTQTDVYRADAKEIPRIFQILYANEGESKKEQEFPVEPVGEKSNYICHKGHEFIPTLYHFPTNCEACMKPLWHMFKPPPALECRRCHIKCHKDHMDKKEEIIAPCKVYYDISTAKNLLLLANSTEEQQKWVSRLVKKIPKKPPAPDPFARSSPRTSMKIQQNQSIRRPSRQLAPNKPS
Method: Experiments were performed in the wells of 384-well microtiter plates and with the measurements of fluorescence anisotropy with the platereader PHERAStar according to the protocols described in the Example 7.

cAPK Cα [2] = target: T1, cAPK Cα (Homo sapiens, UniProt P17612); experiment: Titration of ARC-TAMRA with cAPK Cα, fluorescence anisotropy, LS 55 spectrometer 0.5 ml cell; assay type: binding; design: purchased Biaffin AG; details: LS 55, 0.5 ml quartz cell, read-out: Kd of ARC-TAMRA complex with cAPK Cα
Method: The change in fluorescence anisotropy was plotted against the kinase concentration [cAPK Cα]. The data were fitted to the equation: […]
The binding of the fluorescent probe ARC-TAMRA to the kinase cAPK Cα (Biaffin) was studied at 10 nM or 2 nM ARC-TAMRA concentration (excitation at 557 nm, slitwidth 10 nm; emission at 585 nm, slitwidth 10 nm, detection of fluorescence polarization).
10 nM solution of ARC-TAMRA in 500 μl of buffer (50 mM HEPES, 200 mM NaCl, 0.5 g/l BSA, 5 mM DTT, 0.05% TWEEN 20, MilliQ water; pH 7.4) was titrated with the solution of kinase cAPK Cα (Biaffin). 1-3 μl quantities of various dilutions of kinase solution were added to 500 μl of 2.0 nM or 10.0 nM solution of ARC-TAMRA, and fluorescence anisotropy was measured after each addition of the kinase solution after 10 min delay time. The change in fluorescence anisotropy was plotted against the kinase concentration [cAPK Cα]. The data were fitted to the equation: […]

cAPK Cα [3] = target: T1, cAPK Cα; experiment: Titration of ARC-TAMRA with cAPK Cα, PHERAstar plate reader, 384-well; assay type: binding; design: purchased Biaffin AG; details: 2 nM and 20 nM ARC-TAMRA, 20 μl, 30° C., read-out: Kd of ARC-TAMRA complex with cAPK Cα
Method: Titrations of 2 nM and 20 nM ARC-TAMRA solutions were performed with cAPK C[…]. 2-fold serial dilutions of the kinase were used leading to concentrations of the kinase between 100 nM and 0.05 nM and 20 μl reaction volumes on a 384-well microtiter plate. […] Optical conditions for the measurements were set as the following: 540 nm excitation and 590 nm emission (20 nm bandpass filters). To find the value of Kd, titration curves were analyzed by a scientific curve-fitting program, e.g., GraphPad Prism 4.03, with nonlinear regression, using the function below:
[formula] where A is measured anisotropy, Af—anisotropy value for free ARC-Photo, Ab—anisotropy value for bound ARC-Photo, Lt—total concentration of ARC-Photo, Rt—nominal total concentration of enzyme, k—concentration of active enzyme divided by nominal concentration of enzyme, Kd—dissociation constant for ARC-Photo complex with enzyme. […] Determination of the Inhibition Constants (Ki)

cAPK Cα [4] = target: T1, cAPK Cα; experiment: Inhibition of TAMRA-kemptide phosphorylation catalyzed by cAPK Cα (TLC, fluorescence imaging); assay type: biochemical; design: purchased Biaffin AG
Method: (§2) The IC50 values of the inhibitors were measured as previously described. [Viht et al., Anal. Biochem. 340 (2005) 165] The inhibitors in various concentrations were incubated at 30° C. in Hepes buffer (50 mM, pH=7.5) containing cAPK Cα (Biaffin AG; about 1 nM), TAMRA-kemptide (10, 30 or 100 μM), ATP (100 μM or 1 mM), magnesium acetate (10 mM) and bovine serum albumin ([…] 0.2 mg/mL). ATP was added last to initiate the phosphorylation reaction. At fixed time points, the reaction was stopped by 20-fold dilution with 75 mM phosphoric acid and obtained solutions were analyzed by normal phase TLC (without fluorescence indicator, eluted with 1-butanol/pyridine/acetic acid/water, 15/10/12/12 by volume). The visualization and quantification of the fluorescent spots were carried out by fluorescence imaging. Data were processed with Graphpad Prism software (version 4, GraphPad).

cAPK Cα [5] = target: T1, cAPK Cα; experiment: High-throughput displacement of ARC-TAMRA from cAPK Cα, PHERAstar
Method: To determine the inhibition constant (Ki), 3-fold serial dilutions of a given inhibitor are performed analogously as for titration experiments. Before the measurement of fluorescence anisotropies the plate is rotated (400 rpm) for 10 minutes at 30° C.

cAPK Cα [6] = target: T1, cAPK Cα; experiment: Inhibition of cAPK Cα-catalysed phosphorylation of TAMRA-kemptide (TLC/fluorescence imaging); assay type: biochemical; design: purchased Biaffin AG; details: single site-targeted constituents of the conjugate
Method: as §2

cAPK Cα [7] = target: T1, cAPK Cα; experiment: Competition: displacement of ARC-TAMRA from complex with cAPK Cα, fluorescence anisotropy, LS 55; assay type: binding; design: purchased Biaffin AG
Method: A complex was created between 10 nM of ARC-TAMRA and 10 nM of cAPK Cα in 0.500 ml of buffer (50 mM HEPES, 200 mM NaCl, 0.5 g/l BSA, 5 mM DTT, 0.05% TWEEN 20, MilliQ water; pH 7.4). Different compounds were screened for binding to cAPK Cα against fixed concentrations of ARC-TAMRA and cAPK Cα (FIG. 4). 1-3 μl quantities of various dilutions of the solution of the inhibitor were added to 500 μl solution of ARC-TAMRA complex with the kinase and fluorescence anisotropy was measured after each addition of the […] after 10 min delay time.

[8] = 100 μM ATP and 30 μM TAMRA-kemptide, read-out: IC50

Compound: N=C(N)NCCC[C@@H](NC(=O)[C@@H](CCCNC(=N)N)NC(=O)[C@@H](CCCNC(=N)N)NC(=O)[C@@H](CCCNC(=N)N)NC(=O)[C@@H](CCCNC(=N)N)NC(=O)[C@@H](CCCNC(=N)N)NC(=O)CCCCCNCCNS(=O)(=O)c1cccc2cnccc12)C(N)=O [Compound 26, H9-(CH2)5C(O)(D-Arg)6-NH2]
- remaining activity at 1 µM (MSK1): ≤ 3%
- remaining activity at 1 µM (PKBb): ≤ 3%
- residual activity (PKBΔph): ≤ 3%
- remaining activity at 1 µM (PRK2): ≤ 3%

Compound: CN(C)c1ccc2c(-c3ccc(C(=O)NCCCC[C@@H](NC(=O)[C@@H](CCCNC(=N)N)NC(=O)[C@@H](CCCNC(=N)N)NC(=O)[C@@H](CCCNC(=N)N)NC(=O)[C@@H](CCCNC(=N)N)NC(=O)[C@@H](CCCNC(=N)N)NC(=O)[C@@H](CCCNC(=N)N)NC(=O)CCCCCNC(=O)[C@H]4O[C@@H](n5cnc6c(N)ncnc65)[C@H](O)[C@@H]4O)C(N)=O)cc3C(=O)[O-])c3ccc(=[N+](C)C)cc-3oc2c1 [ARC-TAMRA, AdcAhx(D-Arg)6-D-Lys(5-TAMRA)-C(O)NH2] ({Adenosine(5'-uronoyl)-Ahx}-[dR][dR][dR][dR][dR][dR][dK](X1)-NH2)
- Kd [1]: 0.004 µM
- Kd (cAPK Cα [2]; 2 nM ARC-TAMRA): 0.0011 µM
- Kd (cAPK Cα [2]; 10 nM ARC-TAMRA): 0.001 µM and 0.00094 µM
- Kd (cAPK Cα [3]): 0.0004 µM
- IC50 (cAPK Cα [4]; read-out: IC50 of inhibition towards cAPK): 0.0062 µM

Compound: CC(=O)N[C@H](CCCNC(=N)N)C(=O)N[C@H](CCCNC(=N)N)C(=O)N[C@H](CCCNC(=N)N)C(=O)N[C@H](CCCNC(=N)N)C(=O)N[C@H](CCCNC(=N)N)C(=O)N[C@H](CCCNC(=N)N)C(=O)N[C@H](CCCCN)C(N)=O [Compound 27, Ac-(D-Arg)6-D-Lys-NH2] (Ac-[dR][dR][dR][dR][dR][dR][dK]-NH2)
- IC50 (cAPK Cα [4]; [8]): ~3000 µM

Compound: RIIa: regulatory subunit of cAMP-dependent protein kinase RIIα, substrate protein-competitive inhibitor
- Ki (cAPK Cα [5]; read-out: Ki (displacement of ARC-TAMRA), 2 nM ARC-TAMRA, 3 nM cAPK Cα, PHERAstar, Kd 0.4 nM used): 0.0005 µM

Compound: N=C(N)NCCC[C@H](NC(=O)[C@H](CCCNC(=N)N)NC(=O)[C@H](CCCNC(=N)N)NC(=O)[C@H](CCCNC(=N)N)NC(=O)CCNC(=O)[C@H](Cc1ccccc1)NC(=O)[C@H]1O[C@@H](n2cnc3c(N)ncnc32)[C@H](O)[C@@H]1O)C(N)=O [Compound 8] ({Adenosine(5'-uronoyl)}-F[βAla]RRRR-NH2)
- IC50 (cAPK Cα [4]; [8]): 3.7 ± 0.3 µM

Compound: Nc1ncnc2c1ncn2[C@@H]1O[C@H](CO)[C@@H](O)[C@H]1O [Ado, adenosine]
- inhibitory potency (cAPK Cα [6]): submillimolar

Compound: N=C(N)NCCC[C@H](NC(=O)[C@H](CCCNC(=N)N)NC(=O)[C@H](CCCNC(=N)N)NC(=O)[C@H](CCCNC(=N)N)NC(=O)CCCCCNCCNS(=O)(=O)c1cccc2cnccc12)C(N)=O [Compound 25] (Isoquinoline5sulfonyl-[X2]RRRR-NH2)
- IC50 (cAPK Cα [4]; second value in parentheses, condition not stated in table (method: ATP 100 μM or 1 mM), read-out: IC50 (μM), value in parentheses (converted)): 0.22 µM

Compound: Nc1ncnc2c1ncn2[C@@H]1O[C@H](CO)[C@@H](O)[C@H]1O [Ado, adenosine, reference compound]
- IC50 (cAPK Cα [4]; [8]): 350 ± 40 µM

Compound: N=C(N)NCCC[C@H](NC(=O)[C@H](CCCNC(=N)N)NC(=O)[C@H](CCCNC(=N)N)NC(=O)[C@H](CCCNC(=N)N)NC(=O)[C@H](CCCNC(=N)N)NC(=O)[C@H](CCCNC(=N)N)NC(=O)CCCCCNC(=O)[C@H]1O[C@@H](n2cnc3c(N)ncnc32)[C@H](O)[C@@H]1O)C(N)=O [Compound 3, AdcAhx(L-Arg)6-NH2]
- IC50 (cAPK Cα [7]; 10 nM ARC-TAMRA, 10 nM cAPK Cα): 1.3 µM
- Ki (cAPK Cα [7]; read-out: Ki (competitive binding)): 0.11 µM
- Ki (cAPK Cα [5]): 0.021 µM

Compound: CN(CCCCCC(=O)N[C@@H](CCCNC(=N)N)C(=O)N[C@@H](CCCNC(=N)N)C(=O)N[C@@H](CCCNC(=N)N)C(=O)N[C@@H](CCCNC(=N)N)C(N)=O)C(=O)[C@H]1O[C@@H](n2cnc3c(N)ncnc32)[C@H](O)[C@@H]1O [Compound 6] ({Adenosine(5'-uronoyl)}-[X3]RRRR-NH2)
- IC50 (cAPK Cα [4]; [8]): 2.6 ± 0.6 µM

Compound: N=C(N)NCCC[C@H](NC(=O)[C@H](CCCNC(=N)N)NC(=O)[C@H](CCCNC(=N)N)NC(=O)[C@H](CCCNC(=N)N)NC(=O)CCCCCNC(=O)[C@H]1O[C@@H](n2cnc3c(N)ncnc32)[C@H](O)[C@@H]1O)C(N)=O [Compound 2] ({Adenosine(5'-uronoyl)-Ahx}-RRRR-NH2)
- IC50 (cAPK Cα [4]; [8]): 2 ± 0.3 µM

Compound: N=C(N)NCCC[C@@H](NC(=O)[C@@H](CCCNC(=N)N)NC(=O)[C@@H](CCCNC(=N)N)NC(=O)[C@@H](CCCNC(=N)N)NC(=O)CCCCCNC(=O)[C@H]1O[C@@H](n2cnc3c(N)ncnc32)[C@H](O)[C@@H]1O)C(N)=O [Compound 4] ({Adenosine(5'-uronoyl)-Ahx}-[dR][dR][dR][dR]-NH2)
- IC50 (cAPK Cα [4]; [8]): 0.33 ± 0.03 µM

Compound: N=C(N)NCCC[C@H](NC(=O)[C@H](CCCNC(=N)N)NC(=O)[C@H](CCCNC(=N)N)NC(=O)[C@H](CCCNC(=N)N)NC(=O)c1ccc(CNC(=O)[C@H]2O[C@@H](n3cnc4c(N)ncnc43)[C@H](O)[C@@H]2O)cc1)C(N)=O [Compound 7] ({Adenosine(5'-uronoyl)-4Amb}-RRRR-NH2)
- IC50 (cAPK Cα [4]; [8]): 23 ± 4 µM

Compound: NCCNS(=O)(=O)c1cccc2cnccc12 [Compound H9, 5-isoquinolinesulfonyl ethylenediamine, reference compound]
- IC50 (cAPK Cα [4]; [8]): 3.7 ± 0.3 µM
